In patent US20040142322A1, “Continuous non-radioactive polymerase assay” (priority 2002, published 2004):
One block for each compound: values may come before it.

Experiments:
Format in all cases: biochemical
HCV NS5B = biological target: T1, HCV NS5B (Hepatitis C virus genotype 1b, UniProt P26663); test: Continuous non-radioactive (luciferase-coupled) NS5B polymerase assay, inhibitor test; settings: NS5B 20 nM, GTP 1 μM, inhibitor 0.1-2.5 μM, FIG. 3
T1 construct: The HCV NS5BΔ55 enzyme was prepared as described by Ferrari et al; made in house
Protocol: Polymerase assays were performed at room temperature using a 100 μl reaction mix in a 96-well plate. Final reaction conditions for NS5B were modified from those used by Ferrari et al. J. Virol. 73:1649-54 (1999) [20 mM Hepes pH 7.3; 7.5 mM DTT; 20 U/ml RNAsin; 0.5 μg/ml oligo(G)12; 5 μg/ml poly(C); 1 μM GTP; 10 mM MgCl2; 60 mM NaCl; 100 μg/ml BSA; and NS5B]. NS5B assay mixtures were supplemented with components for the ATP sulfurylase and luciferase coupled enzyme reactions [0.5 mM coenzyme A (CoA); 310 μM D-luciferin; 1 nM luciferase; 5 μM APS; 0.03-0.3 U ATP sulfurylase (see Brief Description of the Drawings for specific conditions)]. […]
To test the effect of inhibitors on the NS5B polymerase reaction, compounds were diluted in the appropriate diluents and added to the GTP-containing mixture. Microtiter plates containing the reaction samples were immediately transferred to the luminometer for detection of the light signal generated over time, taking a 0.2-1.0 s reading of each well every 30-60 s (time intervals depend on the number of samples tested). Readings were monitored in comparison to a no-NS5B reaction as a control for ATP generation in the absence of polymerase activity. […]

firefly luciferase [1] = biological target: T2, firefly luciferase (Photinus pyralis, UniProt P08659)
T2 construct: purchased Promega (Madison, Wis.)
Protocol: (§1) To test the effect of NTPs on the ATP sulfurylase/luciferase coupled read-out system, control reactions for NS5B assays (with 0.3 U ATP sulfurylase) were assembled as above omitting RdRp and RNA. Reactions were initiated by addition of nucleotide (1 μM final). To reduce free PPi in commercial NTPs, 10 mM stocks were pretreated with inorganic pyrophosphatase. A 10 μl aliquot of the NTP stock was incubated with 0.5 U of thermostable inorganic pyrophosphatase for 10 minutes at 75° C.; untreated NTP samples were processed in parallel as controls. Treated and untreated NTPs were diluted to 100 μM working stocks for subsequent assays.
(§2) Another possible source of background is direct utilization of the NTPs by the ATP sulfurylase/luciferase cascade. To address this possibility, reactions without either RdRp or template were examined.

firefly luciferase [2] = settings: reactions without RdRp or template, nucleotide 1 μM final
Protocol: as §1, §2

T1 sequence (P26663 2420-2955): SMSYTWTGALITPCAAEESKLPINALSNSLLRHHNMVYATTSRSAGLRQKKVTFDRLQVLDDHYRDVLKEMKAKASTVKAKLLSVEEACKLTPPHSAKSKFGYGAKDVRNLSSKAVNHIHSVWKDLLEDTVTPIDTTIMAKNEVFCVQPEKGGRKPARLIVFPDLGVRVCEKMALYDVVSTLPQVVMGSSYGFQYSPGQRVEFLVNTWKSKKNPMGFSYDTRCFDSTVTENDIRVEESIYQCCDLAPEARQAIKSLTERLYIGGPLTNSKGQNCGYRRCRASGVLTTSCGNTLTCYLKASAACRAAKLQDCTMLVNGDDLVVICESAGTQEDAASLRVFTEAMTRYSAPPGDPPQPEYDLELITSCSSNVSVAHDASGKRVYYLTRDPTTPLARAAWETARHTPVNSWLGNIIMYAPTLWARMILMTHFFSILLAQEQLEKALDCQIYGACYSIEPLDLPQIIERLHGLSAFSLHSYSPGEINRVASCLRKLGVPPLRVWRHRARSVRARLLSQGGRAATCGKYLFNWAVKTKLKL
T2 sequence (P08659 whole entry): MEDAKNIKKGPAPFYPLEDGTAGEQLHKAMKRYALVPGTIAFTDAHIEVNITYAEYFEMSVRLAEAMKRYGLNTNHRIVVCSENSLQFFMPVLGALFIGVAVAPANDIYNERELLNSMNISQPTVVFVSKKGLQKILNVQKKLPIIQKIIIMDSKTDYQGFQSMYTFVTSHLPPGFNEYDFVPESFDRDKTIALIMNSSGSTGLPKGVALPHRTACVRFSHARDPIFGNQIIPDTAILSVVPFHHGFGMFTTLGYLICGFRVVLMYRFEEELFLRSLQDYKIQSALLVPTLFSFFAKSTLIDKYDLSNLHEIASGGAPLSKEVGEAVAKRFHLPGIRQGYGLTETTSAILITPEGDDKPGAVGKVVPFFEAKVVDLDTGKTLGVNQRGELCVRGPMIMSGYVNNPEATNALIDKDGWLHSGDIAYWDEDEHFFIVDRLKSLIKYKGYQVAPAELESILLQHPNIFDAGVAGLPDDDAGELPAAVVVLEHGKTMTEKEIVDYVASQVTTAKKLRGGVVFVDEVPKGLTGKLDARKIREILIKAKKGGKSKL

SMILES: Nc1nc2c(ncn2[C@@H]2O[C@H](COP(=O)(O)OP(=O)(O)OP(=O)(O)O)C[C@H]2O)c(=O)[nH]1 [3′-deoxyguanosine-5′ triphosphate]
Inhibition of NS5B activity (reduced levels of light generated) (HCV NS5B; 30 minute reaction): Dose- and time-dependent inhibition
Mode of inhibition from progress curves (HCV NS5B): consistent with chain termination

SMILES: Nc1ncnc2c1ncn2[C@@H]1O[C@H](COP(=O)(O)OP(=O)(O)OP(=O)(O)O)[C@@H](O)[C@H]1O [ATP, Adenosine 5′-triphosphate]
Km (firefly luciferase [1]; read-out: Km for the luciferase reaction, under these experimental conditions, data not shown): 0.65 ± 0.04 µM

Utilization of NTP as substrate by the ATP sulfurylase/luciferase cascade (background signal) (firefly luciferase [2]): poor substrate for luciferase
SMILES: Nc1ncnc2c1ncn2[C@@H]1O[C@H](COP(O)(=S)OP(=O)(O)OP(=O)(O)O)[C@@H](O)[C@H]1O (stereo partly shown) [ATPαS]

Utilization of NTP as substrate by the ATP sulfurylase/luciferase cascade (background signal) (firefly luciferase [2]): lowest level of signal
SMILES: Nc1nc2c(ncn2[C@@H]2O[C@H](COP(=O)(O)OP(=O)(O)OP(=O)(O)O)[C@@H](O)[C@H]2O)c(=O)[nH]1 [GTP]

SMILES: O=P(O)(O)OP(=O)(O)OP(=O)(O)OC[C@H]1O[C@@H](n2cnc3c(O)ncnc32)[C@H](O)[C@@H]1O [Inosine triphosphate (ITP), Inosine triphosphate]
Luciferase substrate quality relative to GTP (firefly luciferase [1]; reactions without RdRp or template, nucleotide 1 μM final): about 10 fold
Utilization of NTP as substrate by the ATP sulfurylase/luciferase cascade (background signal) (firefly luciferase [2]): relatively good luciferase substrate
